The values that follow come from publication PMC5784979, “Direct comparison of the four aldehyde oxidase enzymes present in mouse gives insight into their substrate specificities” (PLoS ONE, 2018).

One experiment concerns the target T1, mAOX2 (Mus musculus, UniProt Q5SGK3).
T1 construct: gene Aox2; recombinant from E. coli TP1000 (codon-optimized plasmid pMAOX2co), Ni-NTA and Superdex 200 purified, chemically sulfurated, dimer (300 kDa)
T1 sequence (Q5SGK3 1-1345): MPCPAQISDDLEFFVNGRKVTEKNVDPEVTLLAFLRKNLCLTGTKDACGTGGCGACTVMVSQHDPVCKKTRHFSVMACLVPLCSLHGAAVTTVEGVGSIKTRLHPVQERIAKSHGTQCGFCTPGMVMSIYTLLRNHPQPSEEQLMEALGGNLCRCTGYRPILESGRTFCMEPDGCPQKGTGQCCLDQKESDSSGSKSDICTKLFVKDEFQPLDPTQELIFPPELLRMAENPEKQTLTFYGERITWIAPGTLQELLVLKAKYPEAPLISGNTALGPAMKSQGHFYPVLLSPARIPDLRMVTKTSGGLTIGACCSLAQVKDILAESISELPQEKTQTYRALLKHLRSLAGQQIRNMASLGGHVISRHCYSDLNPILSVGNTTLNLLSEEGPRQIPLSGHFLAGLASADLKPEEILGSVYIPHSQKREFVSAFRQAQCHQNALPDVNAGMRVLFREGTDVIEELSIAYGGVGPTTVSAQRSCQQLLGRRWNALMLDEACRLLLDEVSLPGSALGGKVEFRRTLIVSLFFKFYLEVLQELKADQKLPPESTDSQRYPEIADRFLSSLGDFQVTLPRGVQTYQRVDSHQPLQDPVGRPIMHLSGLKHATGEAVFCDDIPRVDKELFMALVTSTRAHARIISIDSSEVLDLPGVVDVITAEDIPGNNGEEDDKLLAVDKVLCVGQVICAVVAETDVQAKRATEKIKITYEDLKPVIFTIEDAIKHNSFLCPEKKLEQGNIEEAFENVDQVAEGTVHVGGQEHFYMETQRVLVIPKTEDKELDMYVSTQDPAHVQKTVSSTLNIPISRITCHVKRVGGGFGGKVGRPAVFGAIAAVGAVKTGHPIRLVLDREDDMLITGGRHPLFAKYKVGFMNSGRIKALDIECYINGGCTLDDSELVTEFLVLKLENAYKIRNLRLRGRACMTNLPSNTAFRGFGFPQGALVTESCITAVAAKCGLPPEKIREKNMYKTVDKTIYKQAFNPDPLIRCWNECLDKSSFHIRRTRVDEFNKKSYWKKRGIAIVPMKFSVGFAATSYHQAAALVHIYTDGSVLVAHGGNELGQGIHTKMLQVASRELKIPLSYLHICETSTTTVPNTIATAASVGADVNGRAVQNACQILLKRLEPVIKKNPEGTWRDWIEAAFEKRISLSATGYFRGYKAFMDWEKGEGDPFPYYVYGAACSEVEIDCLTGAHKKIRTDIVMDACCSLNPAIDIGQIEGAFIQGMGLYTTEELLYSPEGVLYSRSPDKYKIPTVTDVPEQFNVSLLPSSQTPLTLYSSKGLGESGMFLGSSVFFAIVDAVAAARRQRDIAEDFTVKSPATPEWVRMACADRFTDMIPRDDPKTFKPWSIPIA
Put plainly: DCPIP reduction at […] nm, steady-state kinetics. The experiment is classed as biochemical. Conditions: 100 μM DCPIP as electron acceptor, 50 mM Tris-HCl, 1 mM EDTA, pH 8.0, 37°C, corrected to 100% Mo saturation.

The target of the next experiment is T2, mAOX4 (Mus musculus, UniProt Q3TYQ9).
T2 construct: gene Aox4; recombinant from E. coli TP1000 (plasmid pMAOX4), Ni-NTA and Superdex 200 purified, chemically sulfurated, dimer (300 kDa)
T2 sequence (Q3TYQ9 1-1336): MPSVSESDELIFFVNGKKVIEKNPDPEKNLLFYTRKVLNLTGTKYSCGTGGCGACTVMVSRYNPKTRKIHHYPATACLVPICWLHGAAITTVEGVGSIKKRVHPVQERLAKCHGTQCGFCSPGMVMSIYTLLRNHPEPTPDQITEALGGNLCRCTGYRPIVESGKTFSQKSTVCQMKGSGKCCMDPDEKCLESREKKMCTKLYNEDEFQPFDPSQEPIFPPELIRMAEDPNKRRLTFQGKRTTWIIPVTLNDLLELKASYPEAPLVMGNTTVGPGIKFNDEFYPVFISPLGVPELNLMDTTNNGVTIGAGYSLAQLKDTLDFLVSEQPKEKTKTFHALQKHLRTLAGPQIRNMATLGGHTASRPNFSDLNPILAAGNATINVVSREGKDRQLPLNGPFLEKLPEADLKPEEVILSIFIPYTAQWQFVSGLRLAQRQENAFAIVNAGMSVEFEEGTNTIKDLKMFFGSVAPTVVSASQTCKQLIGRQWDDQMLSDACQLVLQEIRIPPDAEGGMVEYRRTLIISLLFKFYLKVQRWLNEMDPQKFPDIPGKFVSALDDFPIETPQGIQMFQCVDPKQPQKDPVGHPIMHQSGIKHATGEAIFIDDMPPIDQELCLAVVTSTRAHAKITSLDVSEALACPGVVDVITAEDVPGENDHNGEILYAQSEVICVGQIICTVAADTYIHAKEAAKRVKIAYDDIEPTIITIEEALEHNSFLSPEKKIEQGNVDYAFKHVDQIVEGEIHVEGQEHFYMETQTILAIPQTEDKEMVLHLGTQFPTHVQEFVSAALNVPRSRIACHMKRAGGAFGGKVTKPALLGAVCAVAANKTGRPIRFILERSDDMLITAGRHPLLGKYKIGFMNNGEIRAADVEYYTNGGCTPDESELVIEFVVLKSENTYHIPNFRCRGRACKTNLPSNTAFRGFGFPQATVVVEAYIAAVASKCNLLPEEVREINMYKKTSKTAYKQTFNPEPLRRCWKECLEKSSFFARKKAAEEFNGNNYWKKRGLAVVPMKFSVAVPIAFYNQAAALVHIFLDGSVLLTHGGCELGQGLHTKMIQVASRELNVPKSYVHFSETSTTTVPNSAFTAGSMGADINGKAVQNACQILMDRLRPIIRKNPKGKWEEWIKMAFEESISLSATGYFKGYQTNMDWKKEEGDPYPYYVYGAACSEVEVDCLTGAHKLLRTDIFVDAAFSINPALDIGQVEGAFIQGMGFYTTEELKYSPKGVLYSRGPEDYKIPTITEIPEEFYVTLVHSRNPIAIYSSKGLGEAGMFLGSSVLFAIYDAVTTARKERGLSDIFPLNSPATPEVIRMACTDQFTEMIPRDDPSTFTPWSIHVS
Description: DCPIP reduction at […] nm, steady-state kinetics. It counts as biochemical. Conditions: 100 μM DCPIP as electron acceptor, 50 mM Tris-HCl, 1 mM EDTA, pH 8.0, 37°C, corrected to 100% Mo saturation.

Where [1] appears, read: limit given jointly for mAOX3, mAOX4 and mAOX2.

Bounds are passed on as bounds.

Take `O=Cc1ccc(O)cc1` [4-hydroxybenzaldehyde]: the Michaelis constant (Km) on mAOX2 (setting [1]) and on mAOX4 (setting [1]) was below 0.002 mM each time.

As to `CC=O` [acetaldehyde], the Km on mAOX2 and at mAOX4 was 4.4 to 4.6 mM in each case.
